According to ChEMBL document CHEMBL3259593, “Development of [(3)H]2-Carboxy-4,6-dichloro-1H-indole-3-propionic Acid ([(3)H]PSB-12150): A Useful Tool for Studying GPR17” (ACS Med Chem Lett, 2014):
Active and inactive are the calls of the source. No cut-off for these calls is given here.

Legend:
[1] = biological target: T1, Uracil nucleotide/cysteinyl leukotriene receptor (Homo sapiens, UniProt Q13304); assay: biochemical
Description: Displacement of [3H]PSB-12150 from human GPR17 expressed in CHO-K1 cell membranes after 60 mins by heterologous competition binding assay

[2] = biological target: T1, Uracil nucleotide/cysteinyl leukotriene receptor; assay: Displacement of [3H]PSB-12150 from human GPR17 expressed in CHO-K1 cell membranes up to 1 mM after 60 mins by liquid scintillation counting
[3] = biological target: T1, Uracil nucleotide/cysteinyl leukotriene receptor; details: CHO-K1, 100 uM
Description: Displacement of [3H]PSB-12150 from human GPR17 expressed in CHO-K1 cell membranes assessed as dissociation half life at 100 uM treated after 1 hr incubation with radioligand by liquid scintillation counting

[4] = biological target: T1, Uracil nucleotide/cysteinyl leukotriene receptor; details: CHO-K1, 100 uM; remark: listed apart in the source
Description: Displacement of [3H]PSB-12150 from human GPR17 expressed in CHO-K1 cell membranes assessed as association half life at 100 uM by liquid scintillation counting

[5] = biological target: T1, Uracil nucleotide/cysteinyl leukotriene receptor; assay: Displacement of [3H]PSB-12150 from human GPR17 expressed in CHO-K1 cell membranes after 60 mins by competition binding assay
[6] = biological target: T1, Uracil nucleotide/cysteinyl leukotriene receptor; assay: Displacement of [3H]PSB-12150 from human GPR17 expressed in CHO-K1 cell membranes after 60 mins by homologous competition binding assay in presence of pranlukast
[7] = biological target: T1, Uracil nucleotide/cysteinyl leukotriene receptor; assay: Displacement of [3H]PSB-12150 from human GPR17 expressed in CHO-K1 cell membranes up to 1 uM after 60 mins by liquid scintillation counting
[8] = biological target: T1, Uracil nucleotide/cysteinyl leukotriene receptor; assay: Displacement of [3H]PSB-12150 from human GPR17 expressed in CHO-K1 cell membranes at 100 uM after 60 mins by liquid scintillation counting
[9] = biological target: T1, Uracil nucleotide/cysteinyl leukotriene receptor; assay: Binding affinity to human GPR17 expressed in CHO-K1 cell membranes after 60 mins by saturation curve study

T1 sequence (Q13304 whole entry): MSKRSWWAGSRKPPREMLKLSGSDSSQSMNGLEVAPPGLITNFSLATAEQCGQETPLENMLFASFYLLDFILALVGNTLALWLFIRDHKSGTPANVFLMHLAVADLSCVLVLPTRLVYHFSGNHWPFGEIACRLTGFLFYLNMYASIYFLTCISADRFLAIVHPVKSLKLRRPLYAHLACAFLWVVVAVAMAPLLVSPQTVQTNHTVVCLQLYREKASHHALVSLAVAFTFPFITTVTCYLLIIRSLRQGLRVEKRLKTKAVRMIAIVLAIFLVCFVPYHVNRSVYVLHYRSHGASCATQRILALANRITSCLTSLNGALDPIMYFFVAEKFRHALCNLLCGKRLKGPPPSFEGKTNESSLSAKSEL

Structure (SMILES): O=C(Nc1cccc2c(=O)cc(-c3nnn[nH]3)oc12)c1ccc(OCCCCc2ccccc2)cc1 [PRANLUKAST]
- Ki [1]: 4.06 µM

Structure (SMILES): Nc1ncnc2c1ncn2[C@@H]1O[C@H](COP(=O)(O)OP(=O)(O)OP(=O)(O)O)[C@@H](O)[C@H]1O
- Activity [2]: inactive

Structure (SMILES): O=c1ccn([C@@H]2O[C@H](COP(=O)(O)OP(=O)(O)O)[C@@H](O)[C@H]2O)c(=O)[nH]1
- Activity [2]: inactive

Structure (SMILES): Nc1ncnc2c1ncn2[C@@H]1O[C@H](COP(=O)(O)OP(=O)(O)O)[C@@H](O)[C@H]1O
- Activity [2]: inactive

Structure (SMILES): O=C(O)CCc1c(C(=O)O)[nH]c2cc(Cl)cc(Cl)c12
- T1/2 [3]: 0.3 min
- T1/2 [4]: 1.8 min
- Ki [5]: 2.32 µM
- Ki [6]: 1.21 µM

Structure (SMILES): O=C(/C=C/c1c(C(=O)O)[nH]c2cc(Cl)cc(Cl)c12)Nc1ccccc1 [GAVESTINEL]
- Ki [1]: 1.63 µM

Structure (SMILES): CCCCC/C=C\C\C=C/C=C/C=C/[C@@H](SCC(NC(=O)CC[C@H](N)C(=O)O)C(=O)NCC(=O)O)[C@@H](O)CCCC(=O)O (single isomer, unassigned)
- Activity [7]: inactive

Structure (SMILES): CC(C)(O)c1ccccc1CC[C@@H](SCC1(CC(=O)O)CC1)c1cccc(/C=C/c2ccc3ccc(Cl)cc3n2)c1 [MONTELUKAST]
- Ki [1]: 6.54 µM

Structure (SMILES): Nc1nc(=O)c2ncn([C@@H]3O[C@H](COP(=O)(O)OP(=O)(O)OP(=O)(O)O)[C@@H](O)C3O)c2[nH]1 (single isomer, unassigned)
- Activity [8]: Active

Structure (SMILES): O=c1ccn([C@@H]2O[C@H](COP(=O)(O)OP(=O)(O)OP(=O)(O)O)[C@@H](O)[C@H]2O)c(=O)[nH]1
- Activity [2]: inactive

Structure (SMILES): [3H]C([3H])(C(=O)O)C([3H])([3H])c1c(C(=O)O)[nH]c2cc(Cl)cc(Cl)c12
- Kd [9]: 1.26 µM
